Columns and labels:
[1] = target: T1, Pyruvate carboxylase (RePC) (Rhizobium etli, UniProt Q2K340); assay: X-ray co-crystal structure; assay type: binding
[2] = target: T1, Pyruvate carboxylase (RePC); assay: ITC; assay type: binding

Kd [1] [µM] | Kd [2] [mM] | Compound
130 | – | O=C(O)C(=O)O [oxalate]
– | ~2 | CC(=O)C(=O)O [pyruvate]
